Laboratory results reported in ChEMBL document CHEMBL3600370, “Synthesis and evaluation of novel prenylated chalcone derivatives as anti-leishmanial and anti-trypanosomal compounds” (Bioorg Med Chem Lett, 2015).

Legend:
Leishmania amazonensis [1] = experiment: Anti-leishmanial activity against Leishmania amazonensis MPRO/BR/1972/M1841-LV-79 promastigotes assessed as parasite growth inhibition incubated for 72 hrs by MTT assay; format: functional, organism-based; details: MPRO/BR/1972/M1841-LV-79, 72 h
[2] = Selectivity index, ratio of EC50 for BALB/c mouse peritoneal macrophages to EC50 for Trypanosoma cruzi Y epimastigotes
[3] = Selectivity index, ratio of EC50 for BALB/c mouse peritoneal macrophages to EC50 for Leishmania infantum MHOM/BR/72 promastigotes
Trypanosoma cruzi = experiment: Anti-trypanosomal activity against Trypanosoma cruzi Y epimastigotes assessed as parasite growth inhibition incubated for 72 hrs by MTT assay; format: functional, organism-based
Leishmania infantum [4] = experiment: Anti-leishmanial activity against Leishmania infantum MHOM/BR/72 promastigotes assessed as parasite growth inhibition incubated for 72 hrs by MTT assay; format: functional, organism-based; details: MHOM/BR/72, 72 h
[5] = Selectivity index, ratio of EC50 for BALB/c mouse peritoneal macrophages to EC50 for Leishmania amazonensis MPRO/BR/1972/M1841-LV-79 promastigotes
[6] = Cytotoxicity against Swiss mouse peritoneal macrophages incubated for 24 hrs by MTT assay; details: Peritoneal macrophage cell
Leishmania infantum [7] = experiment: Anti-leishmanial activity against Leishmania infantum MHOM/BR/72 amastigotes infected in BALB/c mouse peritoneal macrophages assessed as reduction in the infection index incubated for 24 hrs by Giemsa staining method; format: functional, organism-based; details: MHOM/BR/72, 24 h
[8] = Selectivity index, ratio of EC50 for BALB/c mouse peritoneal macrophages to EC50 for Leishmania amazonensis MPRO/BR/1972/M1841-LV-79 amastigotes
Leishmania amazonensis [9] = experiment: Anti-leishmanial activity against Leishmania amazonensis MPRO/BR/1972/M1841-LV-79 amastigotes infected in BALB/c mouse peritoneal macrophages assessed as reduction in the infection index incubated for 24 hrs by Giemsa staining method; format: functional, organism-based; details: MPRO/BR/1972/M1841-LV-79, 24 h
[10] = Selectivity index, ratio of EC50 for BALB/c mouse peritoneal macrophages to EC50 for Leishmania infantum MHOM/BR/72 amastigotes

EC50 (Trypanosoma cruzi)	EC50 (Leishmania infantum [7])	EC50 (Leishmania amazonensis [9])	SMILES	EC50 (Leishmania amazonensis [1])	Ratio EC50 [2]	Ratio EC50 [3]	EC50 (Leishmania infantum [4])	Ratio EC50 [5]	EC50 [6]	Ratio EC50 [8]	Ratio EC50 [10]
75.9 µM	–	–	O=C(/C=C/c1ccccc1O)c1ccccc1	334 µM	1.88	1.56	91.7 µM	0.43	143 µM	–	–
21.6 µM	10.4 µM	19.9 µM	CC(C)=CCOc1ccccc1/C=C/C(=O)c1ccccc1	4.38 µM	5.16	23.73	4.69 µM	25.41	111 µM	5.58	10.69
69.4 µM	2.24 µM	2.9 µM	CC(C)=CCC/C(C)=C/CC/C(C)=C/COc1ccccc1/C=C/C(=O)c1ccccc1	6.47 µM	2.03	13.78	10.2 µM	21.74	141 µM	48.5	62.79
26.2 µM	63.9 µM	25.8 µM	CC(C)=CCC/C(C)=C/COc1cccc(/C=C/C(=O)c2ccccc2)c1	8.92 µM	3.12	10.49	7.81 µM	9.18	81.9 µM	3.17	1.28
23.8 µM	32.5 µM	21.9 µM	CC(C)=CCC/C(C)=C/CC/C(C)=C/COc1cccc(/C=C/C(=O)c2ccccc2)c1	9.25 µM	2.32	9.22	5.98 µM	6	55.1 µM	2.52	1.69
68.3 µM	–	–	O=C(/C=C/c1cccc(O)c1)c1ccccc1 [3-HYDROXY CHALCONE]	412 µM	2.09	0.96	185 µM	0.35	143 µM	–	–
–	2.98 µM	4.92 µM	C[C@@H]1[C@H](O)[C@@H](C)/C=C/C=C/C=C/C=C/C=C/C=C/C=C/[C@H](O[C@@H]2O[C@H](C)[C@@H](O)[C@H](N)[C@@H]2O)C[C@@H]2O[C@](O)(C[C@@H](O)C[C@@H](O)[C@H](O)CC[C@@H](O)C[C@@H](O)CC(=O)O[C@H]1C)C[C@H](O)[C@H]2C(=O)O [AMPHOTERICIN B]	3.22 µM	–	25.11	0.92 µM	7.17	23.1 µM	4.7	7.75
4.07 µM	–	–	O=C(Cn1ccnc1[N+](=O)[O-])NCc1ccccc1 [BENZNIDAZOLE]	–	–	–	–	–	–	–	–
103 µM	–	–	O=C(/C=C/c1ccccc1)c1ccccc1 [CHALCONE]	13.2 µM	0.09	1.06	8.89 µM	0.7	9.5 µM	–	–
–	19.8 µM	6.25 µM	N=C(N)c1ccc(OCCCCCOc2ccc(C(=N)N)cc2)cc1 [PENTAMIDINE]	10.2 µM	–	0.53	67.7 µM	3.5	35.7 µM	5.71	1.81
